# Source: patent US20220257529A1, “USE OF C[…] THE TREATMENT OF […] SPASMS” (GW Research Limited, priority 2019, published 2022)
# “Also recorded” adds a separate entry of the source.
# Legend:
# [1] = system: refractory epileptic spasms (ES); test: Open label, expanded-access program: epileptic spasm frequency relative to baseline (caregiver diary); assay type: in vivo, human; settings: for Percent Change in Spasm Frequency, Average: average of nine patients; for Percent Change in Spasm Frequency at CBD dose, Average: average of patients
# Protocol: Subjects were required to be on one or more AEDs at stable doses for a minimum of two weeks prior to baseline and to have stable vagus nerve stimulation (VNS) settings and ketogenic diet ratios for a minimum of four weeks prior to baseline.
# (§1) Patients were administered botanically derived purified CBD in a 100 mg/mL sesame oil-based solution at an initial dose of five milligrams per kilogram per day (mg/kg/day) in two divided doses. Dose was then increased weekly by 5 mg/kg/day to a goal of 25 mg/kg/day.
# (§2) A maximum dose of 50 mg/kg/day could be utilised for patients who were tolerating the medication but had not achieved seizure control; these patients had further weekly titration by 5 mg/kg/day.
# There were nine patients in this study, and each received CBD for at least 12 months. Modifications were made to concomitant AEDs as per clinical indication.
# (§3) Seizure frequency, intensity, and duration were recorded by caregivers in a diary during a baseline period of at least 28 days. Changes in seizure frequency relative to baseline were calculated after 2 weeks and 1, 2, 3, 4, 6, 9 and 12 months of treatment. Epileptic spasms were counted by clusters.
# Patients were defined as responders if they had more than 50% reduction in seizure frequency compared to baseline. […] The percent change in seizure frequency was calculated as follows: […]
# The percent change reported at each time interval reflects reported seizure frequency over the past month relative to baseline. The EEG findings were correlated to the corresponding month seizure frequency change as well as the baseline seizure frequency.
# [2] = Open label, expanded-access program: caregiver logs of cognitive changes, behavioural changes and adverse events; assay type: in vivo, human
# Protocol: as §1, §2
# During subsequent follow-up visits, parents provided weekly logs regarding cognitive changes, behavioural changes, and adverse events while taking CBD. Additionally, subjects had electroencephalogram (EEG) testing prior to and after the initiation of CBD.
# [3] = system: other seizure types (tonic-clonic seizures); test: Open label, expanded-access program: other seizure types; assay type: in vivo, human
# Protocol: as §1, §3
# epileptic spasms [4] = test: Treatment history of enrolled patients before CBD; assay type: in vivo, human; settings: before initiation of CBD treatment
# epileptic spasms [5] = settings: first-line treatment of epileptic spasms; cited from earlier work
compound,measurement,setting,value
"C=C(C)[C@@H]1CCC(C)=C[C@H]1c1c(O)cc(CCCCC)cc1O [CBD, cannabidiol]",Responder rate at CBD dose,[1]; 10 mg/kg/day,66.70%
same,Responder rate at CBD dose,[1]; 20 mg/kg/day,77.80%
same,Responder rate at CBD dose,[1]; 25 mg/kg/day,66.70%
same,Responder rate at CBD dose,[1]; 35 mg/kg/day,57.10%
same,Responder rate at CBD dose,[1]; 45 mg/kg/day,80.00%
same,Responder rate at CBD dose,[1]; 50 mg/kg/day,83.30%
same,Responder Rate (percent of patients with a greater than 50% reduction in spasm frequency),[1]; 1 month of treatment,77.8%
same,Responder Rate (percent of patients with a greater than 50% reduction in spasm frequency),[1]; 2 months of treatment,66.7%
same,Responder Rate (percent of patients with a greater than 50% reduction in spasm frequency),[1]; 2 weeks of treatment,66.7%
same,Responder Rate (percent of patients with a greater than 50% reduction in spasm frequency),[1]; 3 months of treatment,55.6%
same,Responder Rate (percent of patients with a greater than 50% reduction in spasm frequency),[1]; 6 months of treatment,77.8%
same,Responder Rate (percent of patients with a greater than 50% reduction in spasm frequency),[1]; 9 months of treatment,77.8%
same,Responder Rate (percent of patients with a greater than 50% reduction in spasm frequency),[1]; 12 months of treatment,77.8%
same,patients spasm-free,"[1]; after 12 months of treatment, five of nine patients",55.6%
same,patients epileptic spasm-free,[1]; after one month of CBD treatment,One patient was epileptic spasm-free
same,patients epileptic spasm-free,[1]; after two months of CBD treatment,two other patients were epileptic spasm-free
same,"Percent Change in Spasm Frequency, Average",[1]; 1 month,−67.20%
same,"Percent Change in Spasm Frequency, Average",[1]; 2 months,−64.10%
same,"Percent Change in Spasm Frequency, Average",[1]; 2 weeks,−67.50%
same,"Percent Change in Spasm Frequency, Average",[1]; 3 months,−59.00%
same,"Percent Change in Spasm Frequency, Average",[1]; 6 months,−73.70%
same,"Percent Change in Spasm Frequency, Average",[1]; 9 months,−61.53%
same,"Percent Change in Spasm Frequency, Average",[1]; 12 months,−51.35%
same,"Percent Change in Spasm Frequency at CBD dose, Average",[1]; 10 mg/kg/day,−67.50%
same,"Percent Change in Spasm Frequency at CBD dose, Average",[1]; 20 mg/kg/day,−67.20%
same,"Percent Change in Spasm Frequency at CBD dose, Average",[1]; 25 mg/kg/day,−61.40%
same,"Percent Change in Spasm Frequency at CBD dose, Average",[1]; 35 mg/kg/day,−56.00%
same,"Percent Change in Spasm Frequency at CBD dose, Average",[1]; 45 mg/kg/day,−80.90%
same,"Percent Change in Spasm Frequency at CBD dose, Average",[1]; 50 mg/kg/day,−50.20%
same,effect on number of epileptic spasms (in words),"[1]; overall conclusion of the program, adjunctive to AEDs",significantly reduce the number of epileptic spasms; also recorded: significant reduction in epileptic spasms
same,seizure freedom in patients suffering from TSC,"[1]; patients 6, 7 and 8, after 12 months of treatment",all three were completely seizure free
same,"patients with caregiver-reported sustained improvements in alertness, verbal capacity and communications, cognitive availability, initiation of emotional and physical connections",[2]; four of nine patients,44%
same,adverse event leading to dose reduction,"[2]; patients 3 and 6 at 45 mg/kg/day and 50 mg/kg/day, reduced to 35 mg/kg/day",diarrhoea
same,improvement in cognitive and behavioural domains (in words),[2]; treatment group of the program,significant improvement in cognitive and behavioural domains
same,freedom from tonic-clonic seizures,[3]; after starting CBD treatment,one patient became seizure free of tonic-clonic seizures
same,frequency of other seizure types,[3]; other seizure types experienced by the patients,effective in reducing the frequency of other seizure types
"C=CC(N)CCC(=O)O (stereo not shown) [VGB, vigabatrin]",outcome of treatment before CBD,epileptic spasms [4],lack of efficacy
same,significant risks,epileptic spasms [5],visual field defects
"Adrenocorticotropin hormone (SYSMEHFRWGKPVGKKRRPVKVYPNGAEDESAEAFPLEF; Corticotropin; UniProt P01189 138-176, looked up) [ACTH, preferred first-line treatment of epileptic spasms]",outcome of treatment before CBD,epileptic spasms [4],without significant benefit
same,significant risks,epileptic spasms [5],increased risk of infection
